Reference: US20260137079A1, “DISPENSER AND METHOD OF USE THEREOF” (priority 2019, published 2026)

Test: Suppression of recrystallization of actives that are solid at room temperature
Assay type: physicochemical
Conditions: glycol ether solvent with Transfluthrin (TFT)

- effect on recrystallization of actives solid at room temperature: suppress the recrystallization
Compound: COCC(C)OCC(C)OC (stereo not shown) [DMM, Dipropylene glycol Dimethyl Ether]
